# Test results reported in PMC11480411, “Mucosal sugars delineate pyrazine vs pyrazinone autoinducer signaling in Klebsiella oxytoca” (Nature Communications, 2024).
# What was measured:
# Test in all cases: PRESTO-Tango GPCR screen
# Format in all cases: cell-based
# Settings in all cases: 100 µM
# HTR1B = biological target: T1, HTR1B (Homo sapiens, UniProt P28222)
# T1 construct: purchased PRESTO-Tango GPCR kit (Roth lab / Addgene)
# Summary of the method: (§1)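 Values are luminescence fold changes over PBS control after 20 h stimulation at 100 μM final. HTLA cells had been transfected 16-24 h earlier with the relevant receptor-Tango plasmid using polyethylenimine.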
# S1PR4 = biological target: T2, S1PR4 (Homo sapiens, UniProt O95977)
# T2 construct: purchased PRESTO-Tango GPCR kit (Roth lab / Addgene)
# Summary of the method: as §1
# CCR10 = biological target: T3, CCR10 (Homo sapiens, UniProt P46092)
# T3 construct: purchased PRESTO-Tango GPCR kit (Roth lab / Addgene)
# Summary of the method: as §1
# CALCRL = biological target: T4, CALCRL (Homo sapiens, UniProt Q16602)
# T4 construct: purchased PRESTO-Tango GPCR kit (Roth lab / Addgene)
# Summary of the method: as §1
# GPR119 = biological target: T5, GPR119 (Homo sapiens, UniProt Q8TDV5)
# T5 construct: purchased PRESTO-Tango GPCR kit (Roth lab / Addgene)
# Summary of the method: as §1
# MRGPRF = biological target: T6, MRGPRF (Homo sapiens, UniProt Q96AM1)
# T6 construct: purchased PRESTO-Tango GPCR kit (Roth lab / Addgene)
# Summary of the method: as §1
# HTR1D = biological target: T7, HTR1D (Homo sapiens, UniProt P28221)
# T7 construct: purchased PRESTO-Tango GPCR kit (Roth lab / Addgene)
# Summary of the method: as §1
# ADRA2A = biological target: T8, ADRA2A (Homo sapiens, UniProt P08913)
# T8 construct: purchased PRESTO-Tango GPCR kit (Roth lab / Addgene)
# Summary of the method: as §1
# CHRM3 = biological target: T9, CHRM3 (Homo sapiens, UniProt P20309)
# T9 construct: purchased PRESTO-Tango GPCR kit (Roth lab / Addgene)
# Summary of the method: as §1
# ADRA2B = biological target: T10, ADRA2B (Homo sapiens, UniProt P18089)
# T10 construct: purchased PRESTO-Tango GPCR kit (Roth lab / Addgene)
# Summary of the method: as §1
# HTR1E = biological target: T11, HTR1E (Homo sapiens, UniProt P28566)
# T11 construct: purchased PRESTO-Tango GPCR kit (Roth lab / Addgene)
# Summary of the method: as §1
# GPR126 = biological target: T12, GPR126 (Homo sapiens, UniProt Q86SQ4)
# T12 construct: purchased PRESTO-Tango GPCR kit (Roth lab / Addgene)
# Summary of the method: as §1
# GPR83 = biological target: T13, GPR83 (Homo sapiens, UniProt Q9NYM4)
# T13 construct: purchased PRESTO-Tango GPCR kit (Roth lab / Addgene)
# Summary of the method: as §1
# VIPR1 = biological target: T14, VIPR1 (Homo sapiens, UniProt P32241)
# T14 construct: purchased PRESTO-Tango GPCR kit (Roth lab / Addgene)
# Summary of the method: as §1
# CRHR2 = biological target: T15, CRHR2 (Homo sapiens, UniProt Q13324)
# T15 construct: purchased PRESTO-Tango GPCR kit (Roth lab / Addgene)
# Summary of the method: as §1
# MRGPRE = biological target: T16, MRGPRE (Homo sapiens, UniProt Q86SM8)
# T16 construct: purchased PRESTO-Tango GPCR kit (Roth lab / Addgene)
# Summary of the method: as §1
# GPR56 = biological target: T17, GPR56 (Homo sapiens, UniProt Q9Y653)
# T17 construct: purchased PRESTO-Tango GPCR kit (Roth lab / Addgene)
# Summary of the method: as §1
# GAL3 = biological target: T18, GAL3 (Homo sapiens, UniProt O60755)
# T18 construct: purchased PRESTO-Tango GPCR kit (Roth lab / Addgene)
# Summary of the method: as §1
# S1PR3 = biological target: T19, S1PR3 (Homo sapiens, UniProt Q99500)
# T19 construct: purchased PRESTO-Tango GPCR kit (Roth lab / Addgene)
# Summary of the method: as §1
# GRM1 = biological target: T20, GRM1 (Homo sapiens, UniProt Q13255)
# T20 construct: purchased PRESTO-Tango GPCR kit (Roth lab / Addgene)
# Summary of the method: as §1
# TACR1 = biological target: T21, TACR1 (Homo sapiens, UniProt P25103)
# T21 construct: purchased PRESTO-Tango GPCR kit (Roth lab / Addgene)
# Summary of the method: as §1
# TAAR6 = biological target: T22, TAAR6 (Homo sapiens, UniProt Q96RI8)
# T22 construct: purchased PRESTO-Tango GPCR kit (Roth lab / Addgene)
# Summary of the method: as §1
# OPN3 = biological target: T23, OPN3 (Homo sapiens, UniProt Q9H1Y3)
# T23 construct: purchased PRESTO-Tango GPCR kit (Roth lab / Addgene)
# Summary of the method: as §1
# RXFP1 = biological target: T24, RXFP1 (Homo sapiens, UniProt Q9HBX9)
# T24 construct: purchased PRESTO-Tango GPCR kit (Roth lab / Addgene)
# Summary of the method: as §1
# LHCGR = biological target: T25, LHCGR (Homo sapiens, UniProt P22888)
# T25 construct: purchased PRESTO-Tango GPCR kit (Roth lab / Addgene)
# Summary of the method: as §1
# S1PR2 = biological target: T26, S1PR2 (Homo sapiens, UniProt O95136)
# T26 construct: purchased PRESTO-Tango GPCR kit (Roth lab / Addgene)
# Summary of the method: as §1
# ADRB1 = biological target: T27, ADRB1 (Homo sapiens, UniProt P08588)
# T27 construct: purchased PRESTO-Tango GPCR kit (Roth lab / Addgene)
# Summary of the method: as §1
# P2RY13 = biological target: T28, P2RY13 (Homo sapiens, UniProt Q9BPV8)
# T28 construct: purchased PRESTO-Tango GPCR kit (Roth lab / Addgene)
# Summary of the method: as §1
# GPR31 = biological target: T29, GPR31 (Homo sapiens, UniProt O00270)
# T29 construct: purchased PRESTO-Tango GPCR kit (Roth lab / Addgene)
# Summary of the method: as §1
# DRD2 = biological target: T30, DRD2 (Homo sapiens, UniProt P14416)
# T30 construct: purchased PRESTO-Tango GPCR kit (Roth lab / Addgene)
# Summary of the method: as §1
# FFA1 = biological target: T31, FFA1 (Homo sapiens, UniProt O14842)
# T31 construct: purchased PRESTO-Tango GPCR kit (Roth lab / Addgene)
# Summary of the method: as §1
# CYSLTR2 = biological target: T32, CYSLTR2 (Homo sapiens, UniProt Q9NS75)
# T32 construct: purchased PRESTO-Tango GPCR kit (Roth lab / Addgene)
# Summary of the method: as §1
# GPR84 = biological target: T33, GPR84 (Homo sapiens, UniProt Q9NQS5)
# T33 construct: purchased PRESTO-Tango GPCR kit (Roth lab / Addgene)
# Summary of the method: as §1
# CASR = biological target: T34, CASR (Homo sapiens, UniProt P41180)
# T34 construct: purchased PRESTO-Tango GPCR kit (Roth lab / Addgene)
# Summary of the method: as §1
# NPFF2 = biological target: T35, NPFF2 (Homo sapiens, UniProt Q9Y5X5)
# T35 construct: purchased PRESTO-Tango GPCR kit (Roth lab / Addgene)
# Summary of the method: as §1
# CX3C1 = biological target: T36, CX3C1 (Homo sapiens, UniProt P49238)
# T36 construct: purchased PRESTO-Tango GPCR kit (Roth lab / Addgene)
# Summary of the method: as §1
# T11 sequence (P28566 whole entry): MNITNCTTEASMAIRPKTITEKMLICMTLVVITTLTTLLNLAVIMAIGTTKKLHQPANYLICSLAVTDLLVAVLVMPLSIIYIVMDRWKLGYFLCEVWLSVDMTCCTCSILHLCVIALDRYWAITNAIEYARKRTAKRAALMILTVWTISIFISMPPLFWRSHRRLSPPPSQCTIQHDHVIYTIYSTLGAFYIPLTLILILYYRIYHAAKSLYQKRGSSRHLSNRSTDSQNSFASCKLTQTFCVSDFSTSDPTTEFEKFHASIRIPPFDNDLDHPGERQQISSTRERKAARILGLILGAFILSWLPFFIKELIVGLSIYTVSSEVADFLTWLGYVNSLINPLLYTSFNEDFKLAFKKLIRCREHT
# T20 sequence (Q13255 19-1194): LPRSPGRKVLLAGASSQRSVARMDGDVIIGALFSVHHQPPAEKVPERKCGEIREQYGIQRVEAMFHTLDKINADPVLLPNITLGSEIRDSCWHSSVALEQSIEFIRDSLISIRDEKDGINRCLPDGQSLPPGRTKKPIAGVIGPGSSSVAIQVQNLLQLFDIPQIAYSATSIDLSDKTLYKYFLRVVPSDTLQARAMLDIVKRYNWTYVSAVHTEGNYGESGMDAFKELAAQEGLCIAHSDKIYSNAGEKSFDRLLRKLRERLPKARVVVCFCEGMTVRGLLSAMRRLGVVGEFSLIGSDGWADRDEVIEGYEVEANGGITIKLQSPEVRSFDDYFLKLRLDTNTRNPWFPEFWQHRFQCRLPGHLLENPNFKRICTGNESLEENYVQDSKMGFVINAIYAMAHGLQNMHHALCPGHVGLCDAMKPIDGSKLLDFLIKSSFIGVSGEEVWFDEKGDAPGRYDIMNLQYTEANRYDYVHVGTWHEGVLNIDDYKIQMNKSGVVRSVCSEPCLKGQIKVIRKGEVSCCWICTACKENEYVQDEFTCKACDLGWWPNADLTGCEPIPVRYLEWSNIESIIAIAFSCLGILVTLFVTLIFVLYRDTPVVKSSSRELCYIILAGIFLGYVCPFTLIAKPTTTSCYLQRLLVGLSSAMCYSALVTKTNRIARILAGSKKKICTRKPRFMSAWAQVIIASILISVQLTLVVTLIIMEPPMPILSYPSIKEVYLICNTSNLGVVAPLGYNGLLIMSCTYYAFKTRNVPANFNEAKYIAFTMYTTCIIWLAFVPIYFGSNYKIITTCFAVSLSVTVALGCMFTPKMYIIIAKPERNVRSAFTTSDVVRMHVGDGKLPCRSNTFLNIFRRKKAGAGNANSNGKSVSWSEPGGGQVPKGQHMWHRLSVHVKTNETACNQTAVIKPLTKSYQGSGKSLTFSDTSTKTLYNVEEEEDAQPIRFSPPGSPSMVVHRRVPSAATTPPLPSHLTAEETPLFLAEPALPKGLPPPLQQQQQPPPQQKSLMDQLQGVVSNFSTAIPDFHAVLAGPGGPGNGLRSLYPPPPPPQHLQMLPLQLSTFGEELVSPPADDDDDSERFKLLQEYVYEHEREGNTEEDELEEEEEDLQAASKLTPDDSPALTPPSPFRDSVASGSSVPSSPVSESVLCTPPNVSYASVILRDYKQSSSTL
# T21 sequence (P25103 whole entry): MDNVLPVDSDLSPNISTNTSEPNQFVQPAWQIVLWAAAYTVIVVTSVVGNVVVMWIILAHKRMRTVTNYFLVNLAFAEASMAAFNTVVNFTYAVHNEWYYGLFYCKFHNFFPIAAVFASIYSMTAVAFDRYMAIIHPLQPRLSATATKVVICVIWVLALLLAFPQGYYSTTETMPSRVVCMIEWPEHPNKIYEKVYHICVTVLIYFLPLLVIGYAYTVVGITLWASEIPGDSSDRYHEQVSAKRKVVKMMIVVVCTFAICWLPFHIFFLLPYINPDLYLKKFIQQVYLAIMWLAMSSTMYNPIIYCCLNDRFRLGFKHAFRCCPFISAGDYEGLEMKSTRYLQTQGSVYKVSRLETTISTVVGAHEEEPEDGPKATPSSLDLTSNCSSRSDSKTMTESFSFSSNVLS
# T28 sequence (Q9BPV8 whole entry, one chain of several): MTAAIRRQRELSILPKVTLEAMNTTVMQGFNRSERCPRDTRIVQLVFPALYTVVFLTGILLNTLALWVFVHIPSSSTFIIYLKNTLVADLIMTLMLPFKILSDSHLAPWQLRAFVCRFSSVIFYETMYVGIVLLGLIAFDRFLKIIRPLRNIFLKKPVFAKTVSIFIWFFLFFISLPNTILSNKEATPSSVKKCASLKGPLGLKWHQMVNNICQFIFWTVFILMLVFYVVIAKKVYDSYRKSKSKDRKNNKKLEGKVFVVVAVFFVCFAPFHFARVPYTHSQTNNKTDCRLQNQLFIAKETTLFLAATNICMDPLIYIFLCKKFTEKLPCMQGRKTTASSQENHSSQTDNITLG
# T24 sequence (Q9HBX9 whole entry): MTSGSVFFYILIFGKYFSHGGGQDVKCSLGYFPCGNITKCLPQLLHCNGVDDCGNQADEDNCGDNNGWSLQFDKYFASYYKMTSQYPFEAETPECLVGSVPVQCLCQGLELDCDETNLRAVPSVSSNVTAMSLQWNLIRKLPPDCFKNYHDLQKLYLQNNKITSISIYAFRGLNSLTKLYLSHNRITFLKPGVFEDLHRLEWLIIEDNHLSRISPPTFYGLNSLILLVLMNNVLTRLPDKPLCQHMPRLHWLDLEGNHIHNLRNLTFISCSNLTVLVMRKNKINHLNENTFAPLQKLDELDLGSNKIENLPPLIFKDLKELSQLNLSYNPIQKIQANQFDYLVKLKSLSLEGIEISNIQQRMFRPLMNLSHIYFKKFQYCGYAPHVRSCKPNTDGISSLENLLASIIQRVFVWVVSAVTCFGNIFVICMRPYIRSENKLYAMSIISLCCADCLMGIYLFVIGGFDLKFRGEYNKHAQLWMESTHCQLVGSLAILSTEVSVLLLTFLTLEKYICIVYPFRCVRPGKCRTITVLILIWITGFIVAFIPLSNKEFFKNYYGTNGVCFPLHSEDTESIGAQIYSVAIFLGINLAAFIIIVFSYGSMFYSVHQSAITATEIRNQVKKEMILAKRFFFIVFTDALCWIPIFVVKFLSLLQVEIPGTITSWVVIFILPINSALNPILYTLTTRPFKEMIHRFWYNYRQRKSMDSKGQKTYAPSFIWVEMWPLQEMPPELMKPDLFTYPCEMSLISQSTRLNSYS
# T32 sequence (Q9NS75 whole entry): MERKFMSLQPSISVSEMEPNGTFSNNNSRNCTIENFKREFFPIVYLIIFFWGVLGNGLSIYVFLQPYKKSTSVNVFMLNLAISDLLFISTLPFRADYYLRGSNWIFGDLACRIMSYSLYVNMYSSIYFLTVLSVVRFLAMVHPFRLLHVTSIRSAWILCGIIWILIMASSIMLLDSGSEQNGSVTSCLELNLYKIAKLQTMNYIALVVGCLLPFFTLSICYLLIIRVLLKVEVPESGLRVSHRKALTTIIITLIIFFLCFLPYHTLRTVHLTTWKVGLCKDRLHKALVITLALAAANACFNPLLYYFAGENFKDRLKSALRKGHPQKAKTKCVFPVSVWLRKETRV
# T36 sequence (P49238 whole entry): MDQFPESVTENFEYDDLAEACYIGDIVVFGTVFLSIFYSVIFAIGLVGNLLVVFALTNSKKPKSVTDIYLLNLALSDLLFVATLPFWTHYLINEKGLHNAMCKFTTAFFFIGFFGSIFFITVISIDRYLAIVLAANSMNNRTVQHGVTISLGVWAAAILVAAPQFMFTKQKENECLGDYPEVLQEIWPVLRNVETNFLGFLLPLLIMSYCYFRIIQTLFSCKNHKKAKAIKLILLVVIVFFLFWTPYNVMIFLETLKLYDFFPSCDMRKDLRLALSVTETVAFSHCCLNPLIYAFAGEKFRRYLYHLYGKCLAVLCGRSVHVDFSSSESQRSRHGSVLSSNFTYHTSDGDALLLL
# T30 sequence (P14416 whole entry): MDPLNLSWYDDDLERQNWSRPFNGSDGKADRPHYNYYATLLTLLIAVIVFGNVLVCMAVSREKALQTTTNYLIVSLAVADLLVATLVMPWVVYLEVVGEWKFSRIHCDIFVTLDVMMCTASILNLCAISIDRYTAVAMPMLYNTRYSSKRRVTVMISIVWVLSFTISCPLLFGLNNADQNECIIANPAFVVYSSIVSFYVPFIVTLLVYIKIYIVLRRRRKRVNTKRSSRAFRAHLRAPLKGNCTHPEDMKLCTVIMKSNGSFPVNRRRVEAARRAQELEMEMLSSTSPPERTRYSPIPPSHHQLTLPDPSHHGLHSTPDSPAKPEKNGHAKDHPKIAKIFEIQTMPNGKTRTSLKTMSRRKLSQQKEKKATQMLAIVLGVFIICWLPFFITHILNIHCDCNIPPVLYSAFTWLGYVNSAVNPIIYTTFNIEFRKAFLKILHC
# T10 sequence (P18089 whole entry): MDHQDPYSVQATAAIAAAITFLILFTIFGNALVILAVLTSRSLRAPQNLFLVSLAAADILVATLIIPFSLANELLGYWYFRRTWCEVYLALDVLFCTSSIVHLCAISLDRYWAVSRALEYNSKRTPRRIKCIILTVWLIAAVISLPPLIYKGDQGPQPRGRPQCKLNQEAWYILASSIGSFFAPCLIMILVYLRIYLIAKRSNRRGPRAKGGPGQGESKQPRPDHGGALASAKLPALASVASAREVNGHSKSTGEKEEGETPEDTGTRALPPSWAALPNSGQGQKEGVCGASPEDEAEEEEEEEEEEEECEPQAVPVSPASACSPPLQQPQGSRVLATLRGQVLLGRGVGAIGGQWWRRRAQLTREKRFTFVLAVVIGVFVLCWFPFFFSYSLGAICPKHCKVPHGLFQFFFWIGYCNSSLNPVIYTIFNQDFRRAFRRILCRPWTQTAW
# T31 sequence (O14842 whole entry): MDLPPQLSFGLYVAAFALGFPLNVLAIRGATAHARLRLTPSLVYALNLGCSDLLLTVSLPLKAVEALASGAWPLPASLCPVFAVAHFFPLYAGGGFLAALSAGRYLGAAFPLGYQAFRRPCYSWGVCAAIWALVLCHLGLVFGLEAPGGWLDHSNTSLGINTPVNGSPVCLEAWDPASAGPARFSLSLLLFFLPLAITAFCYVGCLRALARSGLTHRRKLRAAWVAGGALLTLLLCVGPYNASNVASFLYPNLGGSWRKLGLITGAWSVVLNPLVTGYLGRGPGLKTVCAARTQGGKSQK
SMILES,GPCR activation (heatmap value) (HTR1B),GPCR activation (heatmap value) (S1PR4),GPCR activation (heatmap value) (CCR10),GPCR activation (heatmap value) (CALCRL),GPCR activation (heatmap value) (GPR119),GPCR activation (heatmap value) (MRGPRF),GPCR activation (heatmap value) (HTR1D),GPCR activation (heatmap value) (ADRA2A),GPCR activation (heatmap value) (CHRM3),GPCR activation (heatmap value) (ADRA2B),GPCR activation (heatmap value) (HTR1E),GPCR activation (heatmap value) (GPR126),GPCR activation (heatmap value) (GPR83),GPCR activation (heatmap value) (VIPR1),GPCR activation (heatmap value) (CRHR2),GPCR activation (heatmap value) (MRGPRE),GPCR activation (heatmap value) (GPR56),GPCR activation (heatmap value) (GAL3),GPCR activation (heatmap value) (S1PR3),GPCR activation (heatmap value) (GRM1),further results
CC(C)Cc1ncc(CCCCNC(=N)N)[nH]c1=O [3-Homo],-0.02426,0.5734,0.7826,1.281,-1.3809,0.9987,-0.01602,-0.8336,0.5889,-0.5041,0.001914,0.0787,0.2309,-0.06399,-0.3278,0.8539,-0.2489,0.4523,-0.09323,-0.1347,GPCR activation (heatmap value) (TACR1): -0.4178; GPCR activation (heatmap value) (TAAR6): 0.5054; GPCR activation (heatmap value) (OPN3): 0.7317; GPCR activation (heatmap value) (RXFP1): -0.5413; GPCR activation (heatmap value) (LHCGR): 0.1782; GPCR activation (heatmap value) (S1PR2): -0.09813; GPCR activation (heatmap value) (ADRB1): 0.6163; GPCR activation (heatmap value) (P2RY13): 0.4611; GPCR activation (heatmap value) (GPR31): 0.09636; GPCR activation (heatmap value) (DRD2): -0.9836; GPCR activation (heatmap value) (FFA1): -0.171; GPCR activation (heatmap value) (CYSLTR2): -0.09894; GPCR activation (heatmap value) (GPR84): 0.1656; GPCR activation (heatmap value) (CASR): -0.5038; GPCR activation (heatmap value) (NPFF2): -0.3895; GPCR activation (heatmap value) (CX3C1): 0.09565
CC(C)Cc1ncc(CCCNC(=N)N)[nH]c1=O [compound 3],0.5899,0.1012,0.9946,-0.1816,0.03995,0.6496,0.2043,0.08001,-0.8614,2.203,0.5345,-0.3797,-0.04196,0.4975,-0.2766,1.264,-0.03075,0.02852,-0.834,0.374,GPCR activation (heatmap value) (TACR1): -0.6956; GPCR activation (heatmap value) (TAAR6): 0.2505; GPCR activation (heatmap value) (OPN3): 0.9288; GPCR activation (heatmap value) (RXFP1): -0.4212; GPCR activation (heatmap value) (LHCGR): 0.1147; GPCR activation (heatmap value) (S1PR2): 0.5246; GPCR activation (heatmap value) (ADRB1): 0.4729; GPCR activation (heatmap value) (P2RY13): -0.6143; GPCR activation (heatmap value) (GPR31): 0.1606; GPCR activation (heatmap value) (DRD2): 0.05842; GPCR activation (heatmap value) (FFA1): -0.7235; GPCR activation (heatmap value) (CYSLTR2): -0.2194; GPCR activation (heatmap value) (GPR84): -0.1947; GPCR activation (heatmap value) (CASR): -0.8261; GPCR activation (heatmap value) (NPFF2): -0.5121; GPCR activation (heatmap value) (CX3C1): 0.5532
